Laboratory results from article PMC11798738, “Targeting ASK1 by CS17919 alleviates kidney‐ and liver‐related diseases in murine models” (Animal Models and Experimental Medicine, 2024).

How the values were obtained:
[1] = target: CYP 2C9 (Homo sapiens, UniProt P11712); assay: CYP inhibition in vitro; assay type: in vitro ADME
[2] = target: human ASK1 kinase (Homo sapiens, UniProt Q99683); assay: ASK1 kinase inhibition, HTRF assay; settings: read-out: IC50, inhibition of ASK1, full-length recombinant human ASK1
human ASK1 kinase, sequence (Q99683 whole entry): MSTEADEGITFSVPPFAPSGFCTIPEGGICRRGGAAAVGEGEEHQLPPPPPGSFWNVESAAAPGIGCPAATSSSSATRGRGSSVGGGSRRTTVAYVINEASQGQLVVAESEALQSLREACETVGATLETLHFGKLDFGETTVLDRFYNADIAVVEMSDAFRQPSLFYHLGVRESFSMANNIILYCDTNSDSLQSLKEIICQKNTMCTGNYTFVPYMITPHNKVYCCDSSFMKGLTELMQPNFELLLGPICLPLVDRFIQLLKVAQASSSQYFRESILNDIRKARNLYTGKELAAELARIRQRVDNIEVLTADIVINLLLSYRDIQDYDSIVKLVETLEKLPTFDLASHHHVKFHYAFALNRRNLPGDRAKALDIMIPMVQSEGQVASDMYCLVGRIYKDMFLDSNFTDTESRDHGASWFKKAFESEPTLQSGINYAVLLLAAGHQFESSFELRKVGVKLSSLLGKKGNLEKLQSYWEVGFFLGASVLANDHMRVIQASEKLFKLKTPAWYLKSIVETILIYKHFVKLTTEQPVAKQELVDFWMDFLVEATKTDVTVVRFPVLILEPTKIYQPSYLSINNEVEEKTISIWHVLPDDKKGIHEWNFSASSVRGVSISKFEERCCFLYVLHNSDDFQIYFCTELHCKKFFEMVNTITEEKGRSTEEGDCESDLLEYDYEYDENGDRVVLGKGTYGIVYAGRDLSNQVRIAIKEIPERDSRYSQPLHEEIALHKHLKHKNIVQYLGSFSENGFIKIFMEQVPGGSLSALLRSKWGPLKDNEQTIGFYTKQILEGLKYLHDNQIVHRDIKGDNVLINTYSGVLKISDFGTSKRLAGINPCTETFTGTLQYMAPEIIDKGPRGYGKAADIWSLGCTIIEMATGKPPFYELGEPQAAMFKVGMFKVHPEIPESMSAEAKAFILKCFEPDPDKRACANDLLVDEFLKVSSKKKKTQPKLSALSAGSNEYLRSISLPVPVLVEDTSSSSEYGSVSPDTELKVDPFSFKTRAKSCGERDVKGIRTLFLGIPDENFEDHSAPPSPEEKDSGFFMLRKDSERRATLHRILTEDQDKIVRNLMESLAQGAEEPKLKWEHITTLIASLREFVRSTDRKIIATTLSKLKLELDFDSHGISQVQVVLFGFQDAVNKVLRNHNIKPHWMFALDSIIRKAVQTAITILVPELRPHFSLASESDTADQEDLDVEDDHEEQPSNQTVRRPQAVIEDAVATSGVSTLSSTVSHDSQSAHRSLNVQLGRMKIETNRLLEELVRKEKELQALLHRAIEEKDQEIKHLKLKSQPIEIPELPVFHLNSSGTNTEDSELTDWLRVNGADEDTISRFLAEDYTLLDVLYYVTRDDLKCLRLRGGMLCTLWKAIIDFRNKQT
Source text: Enzymatic activity analysis was repeated three times. IC50 results were obtained using Prism 8.0 (GraphPad Prism Software).

[3] = target: CYP 2C19 (Homo sapiens, UniProt P33261); assay: CYP inhibition in vitro; assay type: in vitro ADME
CYP 2C19, sequence (P33261 whole entry): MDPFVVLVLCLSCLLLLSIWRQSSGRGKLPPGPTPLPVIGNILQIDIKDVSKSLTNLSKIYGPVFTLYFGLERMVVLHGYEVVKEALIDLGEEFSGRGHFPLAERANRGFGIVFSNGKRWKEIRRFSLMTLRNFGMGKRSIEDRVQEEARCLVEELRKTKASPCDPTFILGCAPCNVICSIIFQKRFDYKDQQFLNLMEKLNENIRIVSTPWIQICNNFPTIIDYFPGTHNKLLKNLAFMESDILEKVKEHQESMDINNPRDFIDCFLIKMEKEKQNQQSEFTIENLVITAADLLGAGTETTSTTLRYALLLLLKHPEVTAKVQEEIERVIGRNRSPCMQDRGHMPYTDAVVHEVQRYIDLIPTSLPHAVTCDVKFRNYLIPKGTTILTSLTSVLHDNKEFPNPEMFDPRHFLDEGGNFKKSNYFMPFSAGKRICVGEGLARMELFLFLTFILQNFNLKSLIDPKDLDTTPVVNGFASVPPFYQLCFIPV

[4] = test system: L02 cells; assay: Cell protection in PA-stimulated L02 cells (Cell Titer-Glo viability); assay type: cell-based, human; settings: 50 μmol/L PA, 72 h
Experimental: L02 cells were cultured in DMEM medium (Gibco, 11 965 092, Carlsbad, CA, USA) supplemented with 20% FBS and 1× penicillin–streptomycin. L02 cells were inoculated in two 96‐well plates at 1E4 cells/well (200 μL). The following day, the cells were stimulated with 50 μmol/L PA (dissolved in ethanol to make a 200× stock solution and then added to the medium) and simultaneously incubated with different concentrations of CS17919 and GS‐4997 (CS17919 and GS‐4997 stock solutions were added to the well plates to reach a final concentration of 10–0.3 μmol/L). After 72 h of incubation, the original medium was removed, followed by the addition of 100 μL of new DMEM medium and 60 μL of Cell Titer‐Glo reagent per well. The cells were incubated for 5 min in the dark, and then transferred to a black permeable plate for detection using an enzyme plate reader (Tecan spark, Grödig, Austria).

[5] = test system: DKD mouse model; assay: STZ + HFD-induced DKD mouse model; assay type: in vivo, mice; settings: 50 mg/kg gavage twice a day, ten weeks
Experimental: 26 male neonatal mice were purchased from Chengdu Pharmachem Biotechnology Co., 5 of which were assigned to the control group and fed a chow diet. The other 21 mice were subcutaneously injected with STZ ([…]) 48 h after birth. After 4 weeks, these mice were fed a high‐fat diet (HFD, Research Diet, New Brunswick, NJ, USA) and randomly subdivided into two groups based on blood glucose level followed by 6 h of fasting: Model (n = 11) and CS17919 (n = 10). Both the control and model groups were given the solvent mentioned above, administered orally twice a day, while CS17919 was administered twice a day by gavage at a dose of 50 mg/kg for 70 days. Body weight measurements were performed twice a week during the administration period. 24‐h urine was collected for each mouse 2 days before sacrifice. Creatinine clearance was calculated using the following formula: creatinine clearance = urinary creatinine (mg/dL) × urine volume per minute (ml/min)/blood creatinine (mg/dL). Fasting blood glucose was measured before sacrifice. After a 10‐week drug intervention, mice were sacrificed, and blood was collected to isolate serum for the urea nitrogen and serum creatinine test. The kidneys of each mouse were then removed, weighed and fixed in 10% formalin solution for pathological study.
PAS staining was applied to determine kidney glomerular sclerosis in the DKD model. Thin 4 μm paraffin sections of each sample were used in this study, which followed the standard procedure. Periodic acid‐treated paraffin sections were stained using Schiff for 10 min, after rinsing the residual acid. Hematoxylin staining was performed for 3 min, and the samples were then dehydrated and sealed. The PAS score was calculated by semiquantitative analysis as follows: 0, without sclerosis; 1, 1%–25% sclerosis area; 2, 26%–50% sclerosis area; 3, 51%–75% sclerosis area; 4, >75% sclerosis area.

[6] = Metabolic stability in liver microsomes; assay type: in vitro ADME; settings: Mouse

CYP 2C9, sequence (P11712 whole entry): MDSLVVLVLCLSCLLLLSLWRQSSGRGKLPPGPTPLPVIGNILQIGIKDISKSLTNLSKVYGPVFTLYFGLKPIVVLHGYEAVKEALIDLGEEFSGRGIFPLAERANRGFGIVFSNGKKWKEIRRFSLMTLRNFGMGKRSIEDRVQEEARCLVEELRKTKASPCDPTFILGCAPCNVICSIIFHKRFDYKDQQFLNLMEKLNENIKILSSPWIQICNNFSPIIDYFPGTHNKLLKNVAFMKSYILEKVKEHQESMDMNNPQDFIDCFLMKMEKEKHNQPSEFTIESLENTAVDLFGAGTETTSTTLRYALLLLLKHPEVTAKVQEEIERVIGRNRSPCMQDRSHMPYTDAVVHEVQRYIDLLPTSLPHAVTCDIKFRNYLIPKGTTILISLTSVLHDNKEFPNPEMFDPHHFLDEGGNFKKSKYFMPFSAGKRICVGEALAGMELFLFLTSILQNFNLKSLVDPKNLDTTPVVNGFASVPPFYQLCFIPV

Cc1cc(F)c(C(=O)Nc2cccc(-c3nncn3[C@H](C)C(F)(F)F)n2)cc1NC(=O)C1CC1 [CS17919]
IC50 [1]: > 10 µM
IC50 [2]: 0.0225 µM
IC50 [3]: > 10 µM
Cell protection (cell viability normalized to PA-treated cells) ([4]; 0.32–10 μmol/L drug): significantly prevented apoptosis at all doses
Cell viability at high drug doses ([4]; 5 and 10 μmol/L drug): mild protective effect
Blood glucose [5]: mildly reduced
Body weight [5]: slight weight loss
Creatinine clearance [5]: non‐significant tendency to improve
Glomerular sclerosis score (PAS staining) vs model group [5]: significantly reduced
Insulin sensitivity (serum insulin) vs model group [5]: slightly increased
Renal coefficients [5]: improved
Serum creatinine [5]: significantly lowered
Serum urea nitrogen [5]: non‐significant tendency to reduce
T1/2 in liver microsomes [6]: >145 min
